Measurements reported in patent US4120864A, “1,2,4-4H-triazole derivatives” (Rohm and Haas Company, priority 1972, dated 1978).
Read-outs that look alike come from different tables or passages of the source.

Key:
[1] = tested on: wheat leaf rust, Puccinia recondita; assay: whole plant or invertebrate; type: in vivo; conditions: foliar; for pest or weed control at 280.212 g/ha: read-out: % Control (without rain), foliar, 0.25 lb.; for pest or weed control at 1120.85 g/ha: read-out: % Control (without rain), foliar, 1 lb.
[2] = tested on: wheat leaf rust, Puccinia recondita; assay: whole plant or invertebrate; type: in vivo; conditions: foliar; for pest or weed control at 280.212 g/ha: read-out: % Control (with 1" of rain), foliar, 0.25 lb., 1" of rain; for pest or weed control at 1120.85 g/ha: read-out: % Control (with 1" of rain), foliar, 1 lb., 1" of rain

Row | SMILES | pest or weed control at 280.212 g/ha [1] [%] | pest or weed control at 1120.85 g/ha [1] [%] | pest or weed control at 280.212 g/ha [2] [%] | pest or weed control at 1120.85 g/ha [2] [%]
1 | CCCCn1cnnc1SC(=O)c1cc(Cl)cc(Cl)c1 [Example 120, 3-(3,5-dichlorobenzoylmercapto)-4-n-butyl-1,2,4-triazole] | 100 | 100 | 98 | 98
2 | CCn1cnnc1S [Example 74, 3-mercapto-4-ethyl-1,2,4-triazole] | 40 | 60 | 0 | 0
3 | c1nncn1C1CC1 [Example 2, 4-cyclopropyl-1,2,4-triazole] | 90 | 90 | 40 | 0
4 | CC(C)(C)n1cnnc1S [Example 77, 3-mercapto-4-t-butyl-1,2,4-triazole] | 68 | 100 | 57 | 80
5 | COc1ccc(Cn2cnnc2)cc1 [Example 50, 4-(4-methoxybenzyl)-1,2,4-triazole] | 100 |  |  | 100
6 | c1nncn1CCCCn1cnnc1 [Example 37, 4-[4-(1,2,4-triazyl)butyl]-1,2,4-triazole] | 0 | 0 | 5 | 0
7 | Clc1ccc(Cn2cnnc2)cc1Cl [Example 53, 4-(3,4-dichloroenzyl)-1,2,4-triazole] | 60 | 70 | 10 | 30
8 | CCCCSc1nncn1CCCC [Example 103, 3-n-butylmercapto-4-n-butyl-1,2,4-triazole] | 50 | 90 | 50 | 80
9 | CCCCCCCCCCn1cnnc1S [Example 82, 3-mercapto-4-n-decyl-1,2,4-triazole] | 61 | 78 | 46 | 72
10 | OCCCCn1cnnc1 [Example 21, 4-(4-hydroxybutyl)-1,2,4-triazole] | 10 | 10 | 0 | 0
11 | Clc1ccc(Cn2cnnc2)c(Cl)c1 [Example 52, 4-(2,4-dichlorobenzyl)-1,2,4-triazole] | 0 | 20 | 5 | 10
12 | c1ccc(-n2cnnc2)cc1 [Example 54, 4-phenyl-1,2,4-triazole] | 75 | 90 | 25 | 85
13 | c1ccc2[nH]c(-n3cnnc3)nc2c1 [Example 71, 4-(2-benzimidazolyl)-1,2,4-triazole] | 10 | 20 | 0 | 0
14 | c1cc(-n2cnnc2)ccn1 [Example 61, 4-(4-pyridyl)-1,2,4-triazole] | 10 | 10 | 0 | 0
15 | CC(C)(C)CC(C)(C)n1cnnc1S [Example 81, 3-mercapto-4-t-octyl-1,2,4-triazole] | 100 | 100 | 53 | 86
16 | c1cnc(-n2cnnc2)nc1 [Example 67, 4-(2-pyrimidyl)-1,2,4-triazole] | 94 | 87 |  | 97
17 | CCCCn1cnnc1SC(=O)c1cc(OC)c(OC)c(OC)c1 [Example 123, 3-(3,4,5-trimethoxybenzoylmercapto)-4-n-butyl-1,2,4-triazole] | 98 | 100 | 90 | 98
18 | CC=CCn1cnnc1 [Example 14, 4-(2-butenyl)-1,2,4-triazole] | 100 | 100 | 99 | 100
19 | Cn1c(O)nnc1S [Example 86, 3-mercapto-4-methyl-5-hydroxy-1,2,4-triazole] | 96 | 99 | 63 | 63
20 | OCCn1cnnc1 [Example 17, 4-(2-hydroxyethyl)-1,2,4-triazole] | 60 | 5 | 0 | 0

Row | SMILES | pest or weed control at 280.212 g/ha [1] [%] | pest or weed control at 1120.85 g/ha [1] [%] | pest or weed control at 280.212 g/ha [2] [%] | pest or weed control at 1120.85 g/ha [2] [%]
21 | COC(=O)c1nnc(S)n1C [Example 96, 3-mercapto-4-methyl-5-methoxycarbonyl-1,2,4-triazole] | 90 | 98 | 0 | 5
22 | c1nc(-n2cnnc2)n[nH]1 [Example 66, 4-(3-(1,2,4-triazy)-1,2,4-triazole] | 100 | 100 | 99 | 
23 | Clc1cccc2sc(-n3cnnc3)nc12 [Example 70] | 100 | 100 | 100 | 
24 | CC(O)CCn1cnnc1 (stereo not shown) [Example 20, 4-(3-hydroxybutyl)-1,2,4-triazole] | 0 | 0 | 0 | 0
25 | Oc1nnc(S)n1-c1ccccc1 [Example 88, 3-mercapto-4-phenyl-5-hydroxy-1,2,4-triazole] | 73 | 80 | 98 | 100
26 | CCOC(=O)CC(C)n1cnnc1 (stereo not shown) [Example 40, 4-(1-methyl-2-ethoxycarbonylethyl)-1,2,4-triazole] | 40 | 40 | 10 | 10
27 | Sc1nncn1-c1ccccc1 [Example 85, 3-mercapto-4-phenyl-1,2,4-triazole] | 80 | 85 | 72 | 90
28 | Sc1nnc(-c2ccco2)n1-c1ccccc1 [Example 92, 3-mercapto-4-phenyl-5-(2-furyl)-1,2,4-triazole] | 100 | 81 | 100 | 87
29 | CCCCn1cnnc1SC(=O)CCC [Example 117, 3-butyrylmercapto-4-n-butyl-1,2,4-triazole] | 100 | 100 | 95 | 99
30 | O=C(O)CCn1cnnc1 [Example 41, 4-(2-carboxyethyl)-1,2,4-triazole] | 85 | 90 | 0 | 0
31 | C#CCn1cnnc1 [Example 15, 4-propargyl-1,2,4-triazole] | 100 | 100 | 99 | 100
32 | C=CCSc1nncn1CCCC [Example 105, 3-allylmercapto-4-n-butyl-1,2,4-triazole] | 50 | 95 | 50 | 90
33 | O=[N+]([O-])c1cccc(-n2cnnc2)c1 [Example 58, 4-(3-nitrophenyl)-1,2,4-triazole] | 80 | 80 | 0 | 0
34 | Cn1c(S)nnc1C(=O)O [Example 93, 3-mercapto-4-methyl-5-carboxy-1,2,4-triazole] | 65 | 94 | 0 | 0
35 | O=C(O)CCCn1cnnc1 [Example 44, 4-(3-carboxypropyl)-1,2,4-triazole] | 20 | 75 | 35 | 5
36 | CCCCCn1cnnc1 [Example 7, 4-n-pentyl-1,2,4-triazole] | 100 | 100 | 100 | 100
37 | Clc1ccc(SCCn2cnnc2)cc1Cl [Example 31, 4-(2-(3,4-dichlorothiophenoxy)ethyl)-1,2,4-triazole] | 95 | 98 | 45 | 60
38 | Clc1ccc(SCCn2cnnc2)cc1 [Example 30, 4-(2-(4-chlorothiophenoxy)ethyl)-1,2,4-triazole] | 90 | 95 | 35 | 75
39 | CCC(O)Cn1cnnc1 (stereo not shown) [Example 19, 4-(2-hydroxybutyl)-1,2,4-triazole] | 65 | 65 | 0 | 0
